Source: article PMC6017732, “Identification and Characterizations of Novel, Selective Histone Methyltransferase SET7 Inhibitors by Scaffold Hopping- and 2D-Molecular Fingerprint-Based Similarity Search” (Molecules : A Journal of Synthetic Chemistry and Natural …, 2018)
Where two headings read alike, the source gives them in different places.

Experiments:
[1] = biological target: T1, SET7 (Homo sapiens, UniProt Q8WTS6); experiment: AlphaLISA SET7 inhibition assay; assay type: biochemical; conditions: for IC50: SET7; for inhibition at 100 µM: read-out: Inhibition Ratio at 100 μM/%
T1 sequence (Q8WTS6 1-366): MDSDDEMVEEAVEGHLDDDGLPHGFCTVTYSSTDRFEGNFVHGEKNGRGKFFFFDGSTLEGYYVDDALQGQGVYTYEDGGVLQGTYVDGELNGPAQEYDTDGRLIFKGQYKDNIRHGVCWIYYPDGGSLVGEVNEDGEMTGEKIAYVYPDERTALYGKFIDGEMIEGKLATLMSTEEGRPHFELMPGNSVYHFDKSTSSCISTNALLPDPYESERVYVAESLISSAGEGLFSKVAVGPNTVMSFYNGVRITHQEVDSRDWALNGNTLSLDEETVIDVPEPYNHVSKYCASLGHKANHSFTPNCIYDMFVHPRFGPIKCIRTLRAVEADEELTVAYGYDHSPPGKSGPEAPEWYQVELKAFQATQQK
Description: AlphaLISA assays were applied to determine the inhibitory activity targeting SET7. The purified SET7 protein was incubated in modified Tris buffer in 384-well plates (Perkin Elmer, Cat. No. 6007299, Waltham, MA, USA) at room temperature for 15 min. The compounds were transferred to the assay plate using Echo in 100% DMSO, and substrate solution was added to each well to start the reaction. Acceptor and donor beads were added and incubated for 60 min at room temperature, shielded from light. The endpoint was evaluated with EndSpire in Alpha mode. The experimental data was fitted in GraphPad Prism 5 to obtain inhibition values using the equation as follows:(1) Inhibition %= Max−Siginal/Max−Min×100%

[2] = biological target: T1, SET7; experiment: 3H-labeled radioisotope methylation assay; assay type: biochemical; conditions: 3H radioactive methylation assay
Description: As for ^3Hradioactive methylation assay, SAH was used as the reference compound and the compounds were tested in 10 concentrations in duplicate in modified Tris buffer (1× assay buffer). The following materials were purchased: SET7 (Enzo, Cat. No. ALX-201-178, New York, NY, USA), [^3H]-SAM (PerkinElmer Inc., Lot. No. 1790854), SAH (Sigma, Cat. No. A9384-25MG, St. Louis, MO, USA) and 384-well Flashplate (Perkin Elmer, Cat. No. SMP410A001PK,). The compounds were transferred to the assay plate by Echo 550 with 3-fold dilution in 100% DMSO where the final DMSO concentration is 1%. Then the enzyme solution was transferred to the assay plate and 1× assay buffer was transferred for low control. After 15 min incubation at room temperature, peptide and [^3H]-SAM mix solution was transferred to each well to start the reaction. The cold SAM in 1× buffer was added to each well to stop the reaction after 60 min incubation at room temperature. 25 μL of the whole reaction system per well was transferred to Flashplate which was washed with dH2O and 0.1% Tween-20 for three times after 60 min incubation. The data was read on Microbeta. All the inhibition assays are performed in duplicate.

[3] = test system: MCF7 (breast cancer) cells; experiment: Cell viability assay (alamarBlue / MTT), MCF7; assay type: cell-based; conditions: Homo sapiens, MCF7, 72 h, MCF7, approximately 72 h
Description: (§1) MCF7, HL60, MV4-11, K562, Kasumi-1, U937, THP1, and Jurkat cell lines were purchased from American Type Culture Collection (Manassas, VA, USA). Fetal bovine serum was purchased from Life Technologies. MCF7 cells were cultured in DMEM medium supplemented with 10% fetal bovine serum at 37 °C in an incubator with 5% CO2 atmosphere. HL60 and MV4-11 cells were cultured in 1640 medium supplemented with 10% fetal bovine serum. K562, Kasumi-1 and HL60 were cultured in 96 plate at 10,000/well for 2 h. DC-S285 was dissolved in DMSO (Sigma) and then stored at 4 °C. The cells were incubated with DC-S285 at different concentrations ranging from 0 to 100 µM for approximately 72 h. The activities of […] against MCF7, HL60, MV4-11, K562, Kasumi-1, U937, THP1, and Jurkat were measured by the alamarBlue assays and MTT assays.

[4] = test system: Jurkat leukemia cell line; experiment: Cell viability assay (alamarBlue / MTT), Jurkat; assay type: cell-based; conditions: Homo sapiens, 72 h, approximately 72 h
Description: as §1

[5] = test system: THP1 leukemia cell line; experiment: Cell viability assay (alamarBlue / MTT), THP1; assay type: cell-based; conditions: Homo sapiens, THP-1, 72 h, THP1, approximately 72 h
Description: as §1

[6] = test system: U937 leukemia cell line; experiment: Cell viability assay (alamarBlue / MTT), U937; assay type: cell-based; conditions: Homo sapiens, U-937, 72 h, U937, approximately 72 h
Description: as §1

[7] = biological target: T2, SET7 (Homo sapiens, UniProt Q8WTS6); experiment: Ligand observed T1rho (CPMG) NMR experiment; assay type: binding; conditions: 20 μM compound, 2.5 μM SET7
T2 sequence (Q8WTS6 117-366 limits assumed): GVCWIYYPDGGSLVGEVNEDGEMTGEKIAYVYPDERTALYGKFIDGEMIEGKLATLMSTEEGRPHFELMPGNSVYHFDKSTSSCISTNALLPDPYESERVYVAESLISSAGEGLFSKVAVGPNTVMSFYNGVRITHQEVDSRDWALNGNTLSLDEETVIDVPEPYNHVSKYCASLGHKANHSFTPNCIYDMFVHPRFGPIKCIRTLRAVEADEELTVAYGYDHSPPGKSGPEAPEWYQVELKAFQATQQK
Description: Ligand observed T1ρ NMR experiment were applied to investigate ligand-protein interactions. All NMR spectra were acquired at 25 °C on a 600 MHz Bruker Avance III spectrometer equipped with a cryogenically cooled probe (Bruker Biospin, Ettlingen, Germany). Samples containing 20 μM DC-S285, and 20 μM DC-S285 in the presence of 2.5 μM SET7 were dissolved in Tris-HCl buffer (50 mM Tris-HCl, 100 mM NaCl, pH 7.4, 5% DMSO, 95% D2O) and then used in NMR data acquisition. T1ρ spectra were recorded by using the pulse sequence of solvent-suppressed ^1D ^1H CPMG (cpmgPr1d). The 90° pulse length was adjusted to about 11.80 μs. A total of four dummy scans and 64 free induction decays (FIDs) were collected into 64 K acquisition points, covering a spectral width of 12 kHz (20 ppm) and giving an acquisition time (ACQ) of 2.73 s. STD data was acquired using 4 dummy scans and a relaxation delay of 3 s, followed by a 40 dB pulsed irradiation at frequency of −1.0 ppm or 33 ppm alternatively. The total acquisition time for STD spectrum was 23 min with 128 FIDs.

[8] = biological target: T3, SETD1B (Homo sapiens, UniProt Q9UPS6); experiment: Enzymatic selectivity assay SETD1B (Alpha mode); assay type: biochemical; conditions: read-out: Inhibition Ratio at 100 μM/%
T3 construct: purchased Active Motif M1083
Description: (§2) For SETD1B, G9a and SMYD2, the activities against those targets were tested in modified Tris buffer (1× assay buffer). All the solid compounds were dissolved to 20 mM in 100% DMSO. The materials used were SETD1B (Active Motif, Cat. No. M1083, Carlsbad, CA, USA), G9a (BPS, Cat. No. 51001, San Diego, CA, USA), […] and 384-well plate (Perkin Elmer, Cat. No. 6007299). Both the enzyme solution and the substrate solution were prepared in 1× assay buffer enzyme solution or 1× assay buffer for low control was transferred to the assay plate. Then substrate mix solution was added to each well to start the solution for 15 min incubation at room temperature. For SETD1B, G9a, the incubation time was adjusted to 60 min and for SMYD2, the incubation time was set to 240 min. For detection, acceptor and donor beads were added and incubated for 60 min at room temperature, shielded from light. The endpoint was evaluated with EnSpire in Alpha mode.

[9] = biological target: T4, SETD8 (Homo sapiens, UniProt Q9NQR1); experiment: Radioactive methylation inhibition assay of SETD8; assay type: biochemical; conditions: SETD8, 100 μM; read-out: Inhibition Ratio at 100 μM/%
T4 sequence (Q9NQR1 1-393): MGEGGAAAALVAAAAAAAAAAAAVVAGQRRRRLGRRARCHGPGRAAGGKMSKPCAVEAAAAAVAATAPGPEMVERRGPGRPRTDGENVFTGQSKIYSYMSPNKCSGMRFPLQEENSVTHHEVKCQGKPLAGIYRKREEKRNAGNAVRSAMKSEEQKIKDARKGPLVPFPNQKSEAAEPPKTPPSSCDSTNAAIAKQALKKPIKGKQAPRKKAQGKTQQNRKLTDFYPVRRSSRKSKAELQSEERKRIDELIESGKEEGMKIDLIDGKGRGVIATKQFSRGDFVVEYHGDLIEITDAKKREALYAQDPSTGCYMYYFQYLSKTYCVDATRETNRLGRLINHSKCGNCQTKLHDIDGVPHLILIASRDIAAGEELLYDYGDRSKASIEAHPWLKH
Description: The radioactive methylation inhibition assay of SETD8 was performed in modified Tris buffer. […] and [^3H]-SAM (PerkinElmer, Cat No. NET1551MC) were added in 1x buffer as the substrate solution. The enzyme solution was incubated at room temperature for 15 min before substrate solution was added to each well to start the reaction. Cold SAM (Sigma, Cat. No. 7007-100MG) was added in 1x buffer to prepare the stop mix, and was added to stop the reaction; finally 10 μL of the reaction system was transferred to flashplate (PerkinElmer Inc., Cat. No. SMP410A001PK) and incubated at room temperature for a minimum of 2 h. The plate was washed three times with dH2O and 0.1% Tween-20, and the radioactivity signal was detected by liquid scintillation counting (MicroBeta, PerkinElmer). SAH was used as the reference compound.

[10] = biological target: T5, G9a (Homo sapiens, UniProt Q96KQ7); experiment: Enzymatic selectivity assay G9a (Alpha mode); assay type: biochemical; conditions: read-out: Inhibition Ratio at 100 μM/%
T5 construct: purchased BPS 51001
T5 sequence (Q96KQ7 785-1210 limits assumed): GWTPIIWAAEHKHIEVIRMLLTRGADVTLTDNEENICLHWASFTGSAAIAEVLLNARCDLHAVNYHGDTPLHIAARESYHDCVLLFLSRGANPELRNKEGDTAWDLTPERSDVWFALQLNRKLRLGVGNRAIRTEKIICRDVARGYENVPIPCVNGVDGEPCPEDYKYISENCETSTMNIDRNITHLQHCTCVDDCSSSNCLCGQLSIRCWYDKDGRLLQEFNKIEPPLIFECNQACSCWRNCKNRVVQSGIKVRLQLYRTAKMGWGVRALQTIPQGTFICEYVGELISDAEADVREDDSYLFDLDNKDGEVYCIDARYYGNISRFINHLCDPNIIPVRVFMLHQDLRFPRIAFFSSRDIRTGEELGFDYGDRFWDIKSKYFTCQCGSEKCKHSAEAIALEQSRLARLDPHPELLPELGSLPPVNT
Description: as §2

[11] = biological target: T6, SMYD2 (Homo sapiens, UniProt Q9NRG4); experiment: Enzymatic selectivity assay SMYD2 (Alpha mode); assay type: biochemical; conditions: SMYD2, 100 μM; read-out: Inhibition Ratio at 100 μM/%
T6 construct: purchased Active Motif 31323
T6 sequence (Q9NRG4 whole entry): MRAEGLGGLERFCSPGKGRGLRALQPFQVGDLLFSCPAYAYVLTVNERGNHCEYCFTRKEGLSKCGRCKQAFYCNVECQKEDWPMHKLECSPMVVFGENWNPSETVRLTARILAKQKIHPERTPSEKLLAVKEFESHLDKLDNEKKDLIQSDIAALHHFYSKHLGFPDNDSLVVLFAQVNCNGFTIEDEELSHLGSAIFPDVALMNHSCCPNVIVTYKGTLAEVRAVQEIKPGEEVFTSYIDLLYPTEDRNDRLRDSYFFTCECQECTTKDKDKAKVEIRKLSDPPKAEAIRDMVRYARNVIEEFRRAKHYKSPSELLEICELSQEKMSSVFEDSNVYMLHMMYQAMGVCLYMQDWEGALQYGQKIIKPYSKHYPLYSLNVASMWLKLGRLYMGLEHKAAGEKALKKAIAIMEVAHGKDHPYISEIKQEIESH
Description: as §2

[12] = biological target: EZH2 (Homo sapiens, UniProt Q15910); experiment: Radioactive methylation inhibition assay of EZH2; assay type: biochemical; conditions: EZH2, 100 μM
Sequence of EZH2 (Q15910 whole entry, species assumed): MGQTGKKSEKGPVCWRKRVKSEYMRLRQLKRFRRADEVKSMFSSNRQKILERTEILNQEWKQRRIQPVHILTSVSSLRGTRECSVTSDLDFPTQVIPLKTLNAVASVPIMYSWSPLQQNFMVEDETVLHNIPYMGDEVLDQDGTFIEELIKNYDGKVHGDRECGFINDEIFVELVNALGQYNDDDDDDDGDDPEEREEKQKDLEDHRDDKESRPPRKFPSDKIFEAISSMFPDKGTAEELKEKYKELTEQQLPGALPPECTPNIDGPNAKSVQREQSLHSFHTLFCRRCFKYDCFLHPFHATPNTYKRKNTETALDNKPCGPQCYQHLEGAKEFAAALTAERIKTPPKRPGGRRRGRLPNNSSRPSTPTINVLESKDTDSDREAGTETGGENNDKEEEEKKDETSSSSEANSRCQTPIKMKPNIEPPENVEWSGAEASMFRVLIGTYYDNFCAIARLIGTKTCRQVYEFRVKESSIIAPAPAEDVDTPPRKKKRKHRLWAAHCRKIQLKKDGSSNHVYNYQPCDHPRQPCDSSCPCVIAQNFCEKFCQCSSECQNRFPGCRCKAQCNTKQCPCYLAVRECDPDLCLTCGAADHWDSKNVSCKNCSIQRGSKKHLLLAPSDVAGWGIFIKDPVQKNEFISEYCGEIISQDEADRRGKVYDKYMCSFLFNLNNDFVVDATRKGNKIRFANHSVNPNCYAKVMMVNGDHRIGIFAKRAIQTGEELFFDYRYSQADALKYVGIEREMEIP
Sequence of EZH2 (O75530 whole entry partner, species assumed): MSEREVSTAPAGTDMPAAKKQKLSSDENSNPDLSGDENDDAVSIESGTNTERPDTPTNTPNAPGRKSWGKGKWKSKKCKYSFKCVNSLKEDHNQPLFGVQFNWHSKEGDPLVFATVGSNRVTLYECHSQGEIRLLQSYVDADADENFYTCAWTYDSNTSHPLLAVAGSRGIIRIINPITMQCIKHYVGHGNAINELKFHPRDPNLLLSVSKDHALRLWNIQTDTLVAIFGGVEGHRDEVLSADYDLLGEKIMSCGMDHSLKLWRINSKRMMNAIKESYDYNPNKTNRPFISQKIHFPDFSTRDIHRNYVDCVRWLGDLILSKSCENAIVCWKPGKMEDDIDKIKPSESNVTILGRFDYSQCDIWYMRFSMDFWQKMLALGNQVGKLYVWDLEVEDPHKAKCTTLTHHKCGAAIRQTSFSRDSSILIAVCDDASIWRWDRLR
Sequence of EZH2 (Q15022 whole entry partner, species assumed): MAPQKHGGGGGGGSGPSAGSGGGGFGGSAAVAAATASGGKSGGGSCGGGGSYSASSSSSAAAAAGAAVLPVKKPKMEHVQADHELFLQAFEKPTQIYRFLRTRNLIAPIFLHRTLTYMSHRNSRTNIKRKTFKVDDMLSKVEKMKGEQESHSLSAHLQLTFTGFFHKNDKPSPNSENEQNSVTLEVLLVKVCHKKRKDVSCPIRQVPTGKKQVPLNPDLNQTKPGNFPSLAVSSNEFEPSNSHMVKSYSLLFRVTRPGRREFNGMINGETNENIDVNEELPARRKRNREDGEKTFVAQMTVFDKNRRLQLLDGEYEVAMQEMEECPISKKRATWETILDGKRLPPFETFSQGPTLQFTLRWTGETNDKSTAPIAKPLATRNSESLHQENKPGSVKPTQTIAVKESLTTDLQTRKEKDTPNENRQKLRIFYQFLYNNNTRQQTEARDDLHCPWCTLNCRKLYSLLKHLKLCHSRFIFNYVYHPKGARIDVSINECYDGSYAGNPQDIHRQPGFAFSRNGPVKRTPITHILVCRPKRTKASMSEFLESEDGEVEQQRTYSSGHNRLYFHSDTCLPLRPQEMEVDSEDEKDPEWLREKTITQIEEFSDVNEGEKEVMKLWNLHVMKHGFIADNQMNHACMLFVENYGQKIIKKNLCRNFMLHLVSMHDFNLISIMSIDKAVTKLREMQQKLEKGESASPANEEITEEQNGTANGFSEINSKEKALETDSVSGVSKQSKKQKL
Description: The radioactive methylation inhibition assay of EZH2 was performed in modified Tris buffer. H3K27me peptide and [^3H]-SAM (Perkin Elmer Inc. Waltham, MA, USA, Lot. No. 1731619) were added in 1x buffer as the substrate solution. The […] solution was incubated at room temperature for 15 min before substrate solution was added to each well to start the reaction. Cold SAM (Sigma, Cat. NO. 7007) was added in 1× buffer to prepare stop mix (final concentration 0.5 mM), and was added to stop the reaction; finally 25 μL of the reaction system was transferred to a FlashPlate (Perkin Elmer, Cat. No. SMP410A001PK) and incubated at room temperature for a minimum of 1 h. The plate was washed three times with dH2O and 0.1% Tween-20, and the radioactivity was determined by liquid scintillation counting (MicroBeta). GSK-126 was used as the reference compound.

Row | IC50 ([1]; AlphaLISA assay) [µM] | IC50 [2] [µM] | IC50 [3] [µM] | IC50 [4] [µM] | IC50 [5] [µM] | IC50 [6] [µM] | binding to SET7 in T1ρ (CPMG) NMR [7] | inhibition at 100 µM ([1]; AlphaLISA assay, SET7, 100 μM) [%] | inhibition at 100 µM ([1]; SETD7, 100 μM, selectivity panel (Table 3)) [%] | inhibition at 100 µM [8] [%] | inhibition at 100 µM [9] [%] | inhibition at 100 µM [10] [%] | inhibition at 100 µM [11] [%] | Inhibition Ratio at 100 μM/% [12] [%] | SMILES
1 | 9.3 | 19.5 | 21.4 | 2.2 | 3.5 | 3.9 | Strong binding signals | – | – | – | – | – | – | – | COc1ccc(C(=O)N/N=C/c2ccc([N+](=O)[O-])cc2)cc1Br [DC-S285]
2 | 1.1 | 2.9 | – | – | – | – | – | 99 | 90.5 | 27.1 | 55.2 | 52.6 | 24.6 | 47.88 | O=C(N/N=C/c1cc([N+](=O)[O-])ccc1Cl)c1ccc(-c2ccccc2)cc1 [DC-S303]
